Assay results taken from patent US20130079370A1, “Method for the Inhibition of Deubiquitinating Activity” (priority 2011, published 2013).

What was measured:
[1] = tested on: HCT116 cells; type: cell-based; settings: human
Source text: These findings indicate that high molecular weight ubiquitin substrate complexes accumulating as a result of DUB inhibition can generate strong cytotoxicity that is insensitive to Bcl-2 over-expression. [table]

[2] = tested on: isogenic clones of HCT116 colon cancer cells; settings: literature refs (11, 12); cited from earlier work

CC(C)C[C@H](NC(=O)[C@H](Cc1ccccc1)NC(=O)c1cnccn1)B(O)O [bortezomib, reference compound]
Fold induction DNAJB1 (Hsp40B1) [1]: 5 fold | Fold induction HSPA1B [1]: 12 fold | Fold induction HSPA6 (Hsp70B′) [1]: 60 fold | sensitivity of apoptosis induction to apoptosis regulators [2]: sensitive to the status of the p53 tumor suppressor and over-expression of the anti-apoptotic Bcl-2 oncoprotein
